Laboratory results from PubChem BioAssay (NCI).
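Test compounds were applied to cells in 96-well plates for 48 hours at 5 doses. TGI: total growth inhibition.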

Legend:
Assay in all cases: NCI anticancer screen, dose series, 48 h
786-0 renal = system: 786-0 renal
A498 renal = system: A498 renal
A549 NSCLC = system: A549 NSCLC
ACHN renal = system: ACHN renal
CAKI-1 renal = system: CAKI-1 renal
CCRF-CEM leukemia = system: CCRF-CEM leukemia
COLO 205 colon = system: COLO 205 colon
DLD-1 colon = system: DLD-1 colon
DMS 114 small cell lung = system: DMS 114 small cell lung
DMS 273 small cell lung = system: DMS 273 small cell lung
EKVX NSCLC = system: EKVX NSCLC
HCC-2998 colon = system: HCC-2998 colon
HCT-116 colon = system: HCT-116 colon
HCT-15 colon = system: HCT-15 colon
HL-60(TB) leukemia = system: HL-60(TB) leukemia
HOP-18 NSCLC = system: HOP-18 NSCLC
HOP-62 NSCLC = system: HOP-62 NSCLC
HOP-92 NSCLC = system: HOP-92 NSCLC
HT29 colon = system: HT29 colon
IGROV1 ovarian = system: IGROV1 ovarian
K-562 leukemia = system: K-562 leukemia
KM12 colon = system: KM12 colon
KM20L2 colon = system: KM20L2 colon
LOX IMVI melanoma = system: LOX IMVI melanoma
LXFL 529 NSCLC = system: LXFL 529 NSCLC
M14 melanoma = system: M14 melanoma
M19-MEL melanoma = system: M19-MEL melanoma
MALME-3M melanoma = system: MALME-3M melanoma
MOLT-4 leukemia = system: MOLT-4 leukemia
NCI-H226 lung = system: NCI-H226 lung
NCI-H23 lung = system: NCI-H23 lung
NCI-H460 lung = system: NCI-H460 lung
NCI-H522 lung = system: NCI-H522 lung
OVCAR-3 ovarian = system: OVCAR-3 ovarian
OVCAR-4 ovarian = system: OVCAR-4 ovarian
OVCAR-5 ovarian = system: OVCAR-5 ovarian
OVCAR-8 ovarian = system: OVCAR-8 ovarian
RPMI-8226 leukemia = system: RPMI-8226 leukemia
RXF-631 renal = system: RXF-631 renal
SF-268 CNS = system: SF-268 CNS
SF-295 CNS = system: SF-295 CNS
SF-539 CNS = system: SF-539 CNS
SK-MEL-2 melanoma = system: SK-MEL-2 melanoma
SK-OV-3 ovarian = system: SK-OV-3 ovarian
SN12C renal = system: SN12C renal
SNB-19 CNS = system: SNB-19 CNS
SNB-78 CNS = system: SNB-78 CNS
SW-620 colon = system: SW-620 colon
TK-10 renal = system: TK-10 renal
U251 CNS = system: U251 CNS
UACC-257 melanoma = system: UACC-257 melanoma
UACC-62 melanoma = system: UACC-62 melanoma
UO-31 renal = system: UO-31 renal
XF 498 CNS = system: XF 498 CNS
RXF 393 renal = system: RXF 393 renal
SK-MEL-28 melanoma = system: SK-MEL-28 melanoma
SK-MEL-5 melanoma = system: SK-MEL-5 melanoma
SNB-75 CNS = system: SNB-75 CNS
SR leukemia = system: SR leukemia

CCOC(=O)C12CCCC1(O)N(NC(=O)OC(C)(C)C)C(C)=C2C(=O)OC (stereo not given)
TGI (786-0 renal): > 100 µM
TGI (A498 renal): > 100 µM
TGI (A549 NSCLC): > 100 µM
TGI (ACHN renal): > 100 µM
TGI (CAKI-1 renal): > 100 µM
TGI (CCRF-CEM leukemia): > 100 µM
TGI (COLO 205 colon): > 100 µM
TGI (DLD-1 colon): > 100 µM
TGI (DMS 114 small cell lung): > 100 µM
TGI (DMS 273 small cell lung): > 100 µM
TGI (EKVX NSCLC): > 100 µM
TGI (HCC-2998 colon): > 100 µM
TGI (HCT-116 colon): > 100 µM
TGI (HCT-15 colon): > 100 µM
TGI (HL-60(TB) leukemia): > 100 µM
TGI (HOP-18 NSCLC): > 100 µM
TGI (HOP-62 NSCLC): > 100 µM
TGI (HOP-92 NSCLC): > 100 µM
TGI (HT29 colon): > 100 µM
TGI (IGROV1 ovarian): > 100 µM
TGI (K-562 leukemia): > 100 µM
TGI (KM12 colon): > 100 µM
TGI (KM20L2 colon): > 100 µM
TGI (LOX IMVI melanoma): > 100 µM
TGI (LXFL 529 NSCLC): > 100 µM
TGI (M14 melanoma): > 100 µM
TGI (M19-MEL melanoma): > 100 µM
TGI (MALME-3M melanoma): > 100 µM
TGI (MOLT-4 leukemia): > 100 µM
TGI (NCI-H226 lung): > 100 µM
TGI (NCI-H23 lung): > 100 µM
TGI (NCI-H460 lung): > 100 µM
TGI (NCI-H522 lung): > 100 µM
TGI (OVCAR-3 ovarian): > 100 µM
TGI (OVCAR-4 ovarian): > 100 µM
TGI (OVCAR-5 ovarian): > 100 µM
TGI (OVCAR-8 ovarian): > 100 µM
TGI (RPMI-8226 leukemia): > 100 µM
TGI (RXF-631 renal): > 100 µM
TGI (SF-268 CNS): > 100 µM
TGI (SF-295 CNS): > 100 µM
TGI (SF-539 CNS): > 100 µM
TGI (SK-MEL-2 melanoma): > 100 µM
TGI (SK-OV-3 ovarian): > 100 µM
TGI (SN12C renal): > 100 µM
TGI (SNB-19 CNS): > 100 µM
TGI (SNB-78 CNS): > 100 µM
TGI (SW-620 colon): > 100 µM
TGI (TK-10 renal): > 100 µM
TGI (U251 CNS): > 100 µM
TGI (UACC-257 melanoma): > 100 µM
TGI (UACC-62 melanoma): > 100 µM
TGI (UO-31 renal): > 100 µM
TGI (XF 498 CNS): > 100 µM

O=C1CC(O)CC(=O)C1=C(O)CCCCCCCCCCc1ccccc1 (stereo not given)
TGI (786-0 renal): > 100 µM
TGI (A549 NSCLC): > 100 µM
TGI (ACHN renal): > 100 µM
TGI (CAKI-1 renal): > 100 µM
TGI (CCRF-CEM leukemia): > 100 µM
TGI (COLO 205 colon): > 100 µM
TGI (DLD-1 colon): > 100 µM
TGI (DMS 114 small cell lung): > 100 µM
TGI (DMS 273 small cell lung): > 100 µM
TGI (EKVX NSCLC): > 100 µM
TGI (HCC-2998 colon): > 100 µM
TGI (HCT-116 colon): > 100 µM
TGI (HL-60(TB) leukemia): 59.2 µM
TGI (HOP-18 NSCLC): > 100 µM
TGI (HOP-62 NSCLC): > 100 µM
TGI (HOP-92 NSCLC): > 100 µM
TGI (HT29 colon): > 100 µM
TGI (IGROV1 ovarian): > 100 µM
TGI (K-562 leukemia): > 100 µM
TGI (KM12 colon): > 100 µM
TGI (KM20L2 colon): > 100 µM
TGI (LOX IMVI melanoma): > 100 µM
TGI (LXFL 529 NSCLC): > 100 µM
TGI (M14 melanoma): > 100 µM
TGI (M19-MEL melanoma): > 100 µM
TGI (MOLT-4 leukemia): > 100 µM
TGI (NCI-H226 lung): 94.7 µM
TGI (NCI-H23 lung): > 100 µM
TGI (NCI-H460 lung): > 100 µM
TGI (NCI-H522 lung): > 100 µM
TGI (OVCAR-3 ovarian): > 100 µM
TGI (OVCAR-4 ovarian): > 100 µM
TGI (OVCAR-5 ovarian): > 100 µM
TGI (OVCAR-8 ovarian): > 100 µM
TGI (RPMI-8226 leukemia): > 100 µM
TGI (RXF 393 renal): > 100 µM
TGI (RXF-631 renal): > 100 µM
TGI (SF-268 CNS): > 100 µM
TGI (SF-295 CNS): > 100 µM
TGI (SF-539 CNS): > 100 µM
TGI (SK-MEL-2 melanoma): 77.1 µM
TGI (SK-MEL-28 melanoma): > 100 µM
TGI (SK-MEL-5 melanoma): > 100 µM
TGI (SK-OV-3 ovarian): > 100 µM
TGI (SN12C renal): > 100 µM
TGI (SNB-19 CNS): > 100 µM
TGI (SNB-75 CNS): > 100 µM
TGI (SNB-78 CNS): > 100 µM
TGI (SR leukemia): > 100 µM
TGI (SW-620 colon): > 100 µM
TGI (TK-10 renal): > 100 µM
TGI (U251 CNS): > 100 µM
TGI (UACC-257 melanoma): > 100 µM
TGI (UACC-62 melanoma): > 100 µM
TGI (UO-31 renal): > 100 µM
TGI (XF 498 CNS): > 100 µM
